Experimental data from US11739074B2, “Ras inhibitors” (Revolution Medicines, Inc., priority 2019, dated 2023).

What was measured:
AsPC-1 (K-Ras G12D) [1] = assay: Potency assay: pERK in AsPC-1 cells; type: cell-based; conditions: Homo sapiens, ASPC1; AsPC-1 cells, K-Ras G12D; read-out: pERK EC50 (AsPC-1 KRAS G12D)
NCI-H358 (K-Ras G12C) = assay: CellTiter-Glo cell viability assay, H358; type: cell-based; conditions: Homo sapiens, NCI-H358, 120 h, NCI-H358, K-Ras G12C, 5-day treatment; read-out: H358 Cell Viability IC50
Method in brief: (§1)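 Direct compound addition to plated cells; 5-day exposure; ~30 min RT equilibration; CellTiter-Glo luminescence. Normalization: (sample/avg DMSO)*100; 4-parameter logistic curve fit.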

AsPC-1 (K-Ras G12D) [2] = assay: CellTiter-Glo cell viability assay, AsPC-1; type: cell-based; conditions: Homo sapiens, ASPC1, 120 h, AsPC-1, K-Ras G12D, 5-day treatment; read-out: AsPC-1 Cell Viability IC50
Method in brief: as §1

KRAS G13D = KRAS G13D (Homo sapiens, UniProt P01116+P62937, G13D); assay: Ras-Raf disruption/FRET/MOA assay, KRAS G13D; type: biochemical; conditions: disruption of BRAF RBD binding, with Cyclophilin A; read-out: KRAS G13D FRET IC50
Sequence of KRAS G13D (P01116 1-169 isoform P01116-2 G13D limits assumed): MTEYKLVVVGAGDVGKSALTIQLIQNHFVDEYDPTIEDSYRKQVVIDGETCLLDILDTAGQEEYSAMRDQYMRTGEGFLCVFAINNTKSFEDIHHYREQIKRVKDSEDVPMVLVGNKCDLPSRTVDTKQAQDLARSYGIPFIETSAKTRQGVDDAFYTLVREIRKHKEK
Sequence of KRAS G13D (P62937 whole entry): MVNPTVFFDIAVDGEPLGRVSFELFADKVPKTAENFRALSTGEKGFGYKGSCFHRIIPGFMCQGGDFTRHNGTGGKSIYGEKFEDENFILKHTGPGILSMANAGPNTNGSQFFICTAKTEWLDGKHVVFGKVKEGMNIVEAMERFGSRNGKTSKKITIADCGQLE
Method in brief: (§2)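 TR-FRET read-out of the K-Ras:RAF complex: decreased ratio relative to DMSO indicates compound-driven cyclophilin A ternary complex formation. Compound (top 30 µM, 3-fold, 10 points), 25 µM cyclophilin A, 12.5 nM GMPPNP-loaded His6-K-Ras and 50 nM GST-BRAF RBD were incubated 3 h at 25 °C (pH 7.3), followed by Eu/APC antibodies for 1.5 h.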

KRAS G12S = KRAS G12S (Homo sapiens, UniProt P01116+P62937, G12S); assay: Ras-Raf disruption/FRET/MOA assay, KRAS G12S; type: biochemical; conditions: disruption of BRAF RBD binding, with Cyclophilin A; read-out: KRAS G12S FRET IC50
Sequence of KRAS G12S (P01116 1-169 isoform P01116-2 G12S limits assumed): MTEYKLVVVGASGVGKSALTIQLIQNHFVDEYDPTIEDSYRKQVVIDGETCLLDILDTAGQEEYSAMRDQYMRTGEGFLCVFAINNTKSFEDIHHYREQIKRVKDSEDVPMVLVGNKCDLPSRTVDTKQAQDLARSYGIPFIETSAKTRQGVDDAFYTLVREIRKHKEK
Sequence of KRAS G12S (P62937 whole entry): as the sequence (P62937 whole entry) above
Method in brief: as §2

KRAS G13C = KRAS G13C (Homo sapiens, UniProt P01116+P62937, G13C); assay: Ras-Raf disruption/FRET/MOA assay, KRAS G13C; type: biochemical; conditions: disruption of BRAF RBD binding, with Cyclophilin A; read-out: KRAS G13C FRET IC50
Sequence of KRAS G13C (P01116 1-169 isoform P01116-2 G13C limits assumed): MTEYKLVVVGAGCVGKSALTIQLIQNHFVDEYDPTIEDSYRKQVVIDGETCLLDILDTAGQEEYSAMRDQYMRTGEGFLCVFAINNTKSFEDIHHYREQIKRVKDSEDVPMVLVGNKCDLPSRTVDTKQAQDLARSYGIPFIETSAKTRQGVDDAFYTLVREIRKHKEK
Sequence of KRAS G13C (P62937 whole entry): as the sequence (P62937 whole entry) above
Method in brief: as §2

KRAS G12V = KRAS G12V (Homo sapiens, UniProt P01116+P62937, G12V); assay: Ras-Raf disruption/FRET/MOA assay, KRAS G12V; type: biochemical; conditions: disruption of BRAF RBD binding, with Cyclophilin A; read-out: KRAS G12V FRET IC50
Sequence of KRAS G12V (P01116 1-169 isoform P01116-2 G12V limits assumed): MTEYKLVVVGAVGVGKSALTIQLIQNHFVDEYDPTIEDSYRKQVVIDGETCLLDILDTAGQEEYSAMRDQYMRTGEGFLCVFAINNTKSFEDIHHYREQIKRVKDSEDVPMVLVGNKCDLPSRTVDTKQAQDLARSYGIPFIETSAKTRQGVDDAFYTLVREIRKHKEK
Sequence of KRAS G12V (P62937 whole entry): as the sequence (P62937 whole entry) above
Method in brief: as §2

KRAS G12D = KRAS G12D (Homo sapiens, UniProt P01116+P62937, G12D); assay: Ras-Raf disruption/FRET/MOA assay, KRAS G12D; type: biochemical; conditions: disruption of BRAF RBD binding, with Cyclophilin A; read-out: KRAS G12D FRET IC50
Sequence of KRAS G12D (P01116 1-169 isoform P01116-2 G12D limits assumed): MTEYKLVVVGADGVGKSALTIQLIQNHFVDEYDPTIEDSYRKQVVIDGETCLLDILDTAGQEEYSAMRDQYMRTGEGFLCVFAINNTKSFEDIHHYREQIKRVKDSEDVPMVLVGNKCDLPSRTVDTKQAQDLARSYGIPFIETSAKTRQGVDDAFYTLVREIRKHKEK
Sequence of KRAS G12D (P62937 whole entry): as the sequence (P62937 whole entry) above
Method in brief: as §2

KRAS WT = KRAS WT (Homo sapiens, UniProt P01116+P62937); assay: Ras-Raf disruption/FRET/MOA assay, KRAS WT; type: biochemical; conditions: disruption of BRAF RBD binding, with Cyclophilin A; read-out: KRAS WT FRET IC50
Sequence of KRAS WT (P01116 1-169 isoform P01116-2 limits assumed): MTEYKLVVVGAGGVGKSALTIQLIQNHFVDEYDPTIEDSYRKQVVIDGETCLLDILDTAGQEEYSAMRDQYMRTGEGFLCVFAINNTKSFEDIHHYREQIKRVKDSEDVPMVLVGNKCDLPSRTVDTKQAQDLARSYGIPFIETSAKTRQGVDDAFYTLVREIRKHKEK
Sequence of KRAS WT (P62937 whole entry): as the sequence (P62937 whole entry) above
Method in brief: as §2

KRAS G12C = KRAS G12C (Homo sapiens, UniProt P01116+P62937, G12C); assay: Ras-Raf disruption/FRET/MOA assay, KRAS G12C; type: biochemical; conditions: disruption of BRAF RBD binding, with Cyclophilin A; read-out: KRAS G12C FRET IC50
Sequence of KRAS G12C (P01116 1-169 isoform P01116-2 G12C limits assumed): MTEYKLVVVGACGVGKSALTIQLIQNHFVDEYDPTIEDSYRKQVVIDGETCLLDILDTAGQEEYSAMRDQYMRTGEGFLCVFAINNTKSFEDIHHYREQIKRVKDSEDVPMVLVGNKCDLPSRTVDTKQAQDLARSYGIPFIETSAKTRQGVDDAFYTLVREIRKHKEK
Sequence of KRAS G12C (P62937 whole entry): as the sequence (P62937 whole entry) above
Method in brief: as §2

KRAS Q61H = KRAS Q61H (Homo sapiens, UniProt P01116+P62937, Q61H); assay: Ras-Raf disruption/FRET/MOA assay, KRAS Q61H; type: biochemical; conditions: KRAS Q61H; read-out: KRAS Q61H FRET data IC50
Sequence of KRAS Q61H (P01116 1-169 isoform P01116-2 Q61H limits assumed): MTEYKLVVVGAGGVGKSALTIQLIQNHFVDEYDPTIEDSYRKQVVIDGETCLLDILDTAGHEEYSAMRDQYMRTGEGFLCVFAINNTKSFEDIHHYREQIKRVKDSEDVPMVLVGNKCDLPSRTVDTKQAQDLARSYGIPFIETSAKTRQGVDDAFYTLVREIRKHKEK
Sequence of KRAS Q61H (P62937 whole entry, the tested form may be a part): as the sequence (P62937 whole entry) above
Text: (§3) Disruption of B-Raf Ras-Binding Domain (BRAF^RBD) Interaction with K-Ras by Compounds of the Invention (Also Called a FRET Assay or an MOA Assay)
(§4) Note—The following protocol describes a procedure for monitoring disruption of K-Ras G12C (GMP-PNP) binding to BRAF^RBD by a compound of the invention. This protocol may also be executed substituting other Ras proteins or nucleotides, such as K-Ras G12D and K-Ras G13D.
(§5) The purpose of this biochemical assay was to measure the ability of test compounds to facilitate ternary complex formation between a nucleotide-loaded K-Ras isoform and Cyclophilin A; the resulting ternary complex disrupts binding to a BRAF^RBD construct, inhibiting K-Ras signaling through a RAF effector.
(§6) In assay buffer containing 25 mM HEPES pH 7.3, 0.002% Tween20, 0.1% BSA, 100 mM NaCl and 5 mM MgCl2, tagless Cyclophilin A, His6-K-Ras-GMPPNP, and GST-BRAF^RBD were combined in a 384-well assay plate at final concentrations of 25 μM, 12.5 nM, and 50 nM, respectively. Compound was present in plate wells as a 10-point 3-fold dilution series starting at a final concentration of 30 μM. After incubation at 25° C. for 3 hours, a mixture of anti-His Eu-W1024 and anti-GST allophycocyanin was then added to assay sample wells at final concentrations of 10 nM and 50 nM, respectively, and the reaction incubated for an additional 1.5 hours. […] Compounds that facilitate disruption of a K-Ras:RAF complex were identified as those eliciting a decrease in the TR-FRET ratio relative to DMSO control wells.

NRAS G12C = molecular target: T1, NRAS G12C (Homo sapiens, UniProt P01111+P62937, G12C); assay: Ras-Raf disruption/FRET/MOA assay, NRAS G12C; type: biochemical; conditions: NRAS G12C; read-out: NRAS G12C FRET data IC50
T1 construct: His6
T1 sequence (P01111 whole entry G12C): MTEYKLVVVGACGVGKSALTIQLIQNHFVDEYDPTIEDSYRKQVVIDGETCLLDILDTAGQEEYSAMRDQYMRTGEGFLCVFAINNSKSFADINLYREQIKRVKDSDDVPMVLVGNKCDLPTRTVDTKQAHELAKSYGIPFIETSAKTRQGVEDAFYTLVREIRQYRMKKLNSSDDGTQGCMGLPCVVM
T1 sequence (P62937 whole entry): as the sequence (P62937 whole entry) above
Method in brief: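 Disruption of Ras:RAF binding was read as a drop in TR-FRET ratio versus DMSO controls. The buffer was 25 mM HEPES pH 7.3, 0.002% Tween20, 0.1% BSA, 100 mM NaCl and 5 mM MgCl2. Compounds were tested as a 10-point 3-fold dilution series from 30 μM. Detection used 10 nM anti-His Eu-W1024 and 50 nM anti-GST allophycocyanin.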

NRAS WT = molecular target: T2, NRAS WT (Homo sapiens, UniProt P01111+P62937); assay: Ras-Raf disruption/FRET/MOA assay, NRAS WT; type: biochemical; conditions: NRAS WT; read-out: NRAS WT FRET data IC50
T2 construct: His6
T2 sequence (P01111 whole entry): as the sequence (P01111 whole entry G12C) above, with C12G counted along it
T2 sequence (P62937 whole entry): as the sequence (P62937 whole entry) above
Text: as §3, §4, §5, §6

NRAS Q61K = molecular target: T3, NRAS Q61K (Homo sapiens, UniProt P01111+P62937, Q61K); assay: Ras-Raf disruption/FRET/MOA assay, NRAS Q61K; type: biochemical; conditions: NRAS Q61K; read-out: NRAS Q61K FRET data IC50
T3 construct: His6
T3 sequence (P01111 whole entry Q61K): as the sequence (P01111 whole entry G12C) above, with C12G, Q61K counted along it
T3 sequence (P62937 whole entry): as the sequence (P62937 whole entry) above
Text: as §3, §4, §5, §6

NRAS Q61R = molecular target: T4, NRAS Q61R (Homo sapiens, UniProt P01111+P62937, Q61R); assay: Ras-Raf disruption/FRET/MOA assay, NRAS Q61R; type: biochemical; conditions: NRAS Q61R; read-out: NRAS Q61R FRET data IC50
T4 construct: His6
T4 sequence (P01111 whole entry Q61R): as the sequence (P01111 whole entry G12C) above, with C12G, Q61R counted along it
T4 sequence (P62937 whole entry): as the sequence (P62937 whole entry) above
Text: as §3, §4, §5, §6

SMILES | EC50 (AsPC-1 (K-Ras G12D) [1]) | IC50 (NCI-H358 (K-Ras G12C)) | IC50 (AsPC-1 (K-Ras G12D) [2]) | IC50 (KRAS G13D) | IC50 (KRAS G12S) | IC50 (KRAS G13C) | IC50 (KRAS G12V) | IC50 (KRAS G12D) | IC50 (KRAS WT) | IC50 (KRAS G12C) | IC50 (KRAS Q61H) | IC50 (NRAS G12C) | IC50 (NRAS WT) | IC50 (NRAS Q61K) | IC50 (NRAS Q61R)
CCn1c(-c2cccnc2[C@H](C)OC)c2c3cc(ccc31)-c1csc(n1)C[C@H](NC(=O)[C@H](C(C)C)N(C)C(=O)N1C3CCC1CN(C(=O)[C@@H]1CN1)C3)C(=O)N1CCC[C@H](N1)C(=O)OCC(C)(C)C2 [Compound 304] | < 5 µM | 0.1 to 1 µM | 1 to 10 µM | 1 to 10 µM | 0.1 to 1 µM | 1 to 10 µM | 0.1 to 1 µM | 0.1 to 1 µM | 0.1 to 1 µM | 0.1 to 1 µM | 0.01 to 0.1 µM | 0.1 to 1 µM | 0.1 to 1 µM | 0.1 to 1 µM | 0.1 to 1 µM
CCn1c(-c2cccnc2[C@H](C)OC)c2c3cc(ccc31)-c1cc(O)cc(c1)C[C@H](NC(=O)[C@H](C(C)C)N1CCCC3(CN(C(=O)[C@H]4CN4)C3)C1=O)C(=O)N1CCC[C@H](N1)C(=O)OCC(C)(C)C2 [Compound 307] | < 5 µM | < 0.01 µM | 0.1 to 1 µM | 0.01 to 0.1 µM | 0.01 to 0.1 µM | 0.01 to 0.1 µM | 0.01 to 0.1 µM | 0.1 to 1 µM | 0.01 to 0.1 µM | < 0.01 µM | 0.01 to 0.1 µM | < 0.01 µM | 0.01 to 0.1 µM | 0.1 to 1 µM | 0.1 to 1 µM
CCn1c(-c2cccnc2[C@H](C)OC)c2c3cc(ccc31)-c1csc(n1)C[C@H](NC(=O)[C@H](C1CCCC1)N1CC[C@]3(CCN(C(=O)[C@H]4CN4)C3)C1=O)C(=O)N1CCC[C@H](N1)C(=O)OCC(C)(C)C2 [Compound 319] | < 5 µM | < 0.01 µM | 0.1 to 1 µM | 1 to 10 µM | 1 to 10 µM | 0.1 to 1 µM | 1 to 10 µM | 1 to 10 µM | 1 to 10 µM | 0.01 to 0.1 µM | 0.1 to 1 µM | 0.01 to 0.1 µM | 1 to 10 µM | 0.1 to 1 µM | 1 to 10 µM
CCn1c(-c2cccnc2[C@H](C)OC)c2c3cc(ccc31)-c1cc(CF)cc(c1)C[C@H](NC(=O)[C@H](C1CCCC1)N1CC[C@]3(CCN(C(=O)[C@@H]4N[C@@H]4C4CC4)C3)C1=O)C(=O)N1CCC[C@H](N1)C(=O)OCC(C)(C)C2 [Compound 321] | < 5 µM | 0.1 to 1 µM | 0.01 to 0.1 µM | 1 to 10 µM | 0.1 to 1 µM | 0.1 to 1 µM | 0.1 to 1 µM | 0.1 to 1 µM | 0.1 to 1 µM | 0.1 to 1 µM | 0.1 to 1 µM | 0.1 to 1 µM | 0.1 to 1 µM | 1 to 10 µM | 1 to 10 µM
CCn1c(-c2cc(N3CCN(C)CC3)cnc2[C@H](C)OC)c2c3cc(ccc31)-c1csc(n1)C[C@H](NC(=O)[C@H](C1CCCC1)N1CC[C@]3(CCN(C(=O)[C@@H]4N[C@@H]4C4CC4)C3)C1=O)C(=O)N1CCC[C@H](N1)C(=O)OCC(C)(C)C2 [Compound 324] | < 5 µM | < 0.01 µM | 0.01 to 0.1 µM | 1 to 10 µM | 0.1 to 1 µM | 0.1 to 1 µM | 0.1 to 1 µM | 0.1 to 1 µM | 0.1 to 1 µM | 0.1 to 1 µM | 0.1 to 1 µM | 0.1 to 1 µM | 0.1 to 1 µM | 0.1 to 1 µM | 0.1 to 1 µM
